Reference: US10934310B2, “Inhibitors of Bruton's tyrosine kinase and method of their use” (JANSSEN PHARMACEUTICA NV, priority 2015, dated 2021)

Target: unphosphorylated-BTK kinase domain (UP-BTK), GST-tagged human BTK (389-659aa) (Homo sapiens (Human), UniProt Q06187)
Experiment: BTK Kinase Lanthascreen Binding Assay
Details: for IC50: read-out: BTK_I_binding pIC50 (converted); for BTK_I_binding pIC50: Lanthascreen binding, 60 minutes incubation, pIC50 = negative log of the IC50 in molar
Experimental: BTK Kinase Lanthascreen Binding Assay:
A BTK kinase lanthascreen binding assay monitors compound binding to unphosphorylated-BTK kinase domain (UP-BTK), by competing with a fluorescent labeled tracer. […] Data were analyzed using Xlfit™ version 5.3 from ID Business Solutions (Guildford), Microsoft Excel add-in. pIC50 refers to the negative log of the IC50 in molar.

Chain of unphosphorylated-BTK kinase domain (UP-BTK), GST-tagged human BTK (389-659aa) (Q06187 389-659): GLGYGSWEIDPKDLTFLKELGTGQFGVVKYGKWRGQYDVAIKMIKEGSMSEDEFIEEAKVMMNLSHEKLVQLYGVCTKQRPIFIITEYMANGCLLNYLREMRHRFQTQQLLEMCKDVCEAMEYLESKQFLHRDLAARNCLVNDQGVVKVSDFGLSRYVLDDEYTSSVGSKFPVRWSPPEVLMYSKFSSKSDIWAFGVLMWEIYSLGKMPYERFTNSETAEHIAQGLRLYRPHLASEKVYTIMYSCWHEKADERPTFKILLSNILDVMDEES

| SMILES | IC50 | BTK_I_binding pIC50 |
| --- | --- | --- |
| CNCC(=O)N[C@@H]1CCC[C@@H]1NC(=O)c1sc2nccc3c2c1NC(=O)N3c1ccnc(-c2ccccc2)c1 [Example 286, N-((1S,2R)-2-(2-(Methylamino)acetamido)cyclopentyl)-4-oxo-5-(2-phenylpyridin-4-yl)-4,5-dihydro-3H-1-thia-3,5,8-triazaacenaphthylene-2-carboxamide] | > 1000 nM | – |
| Cc1cc(OC2CCOCC2)ccc1N1C(=O)Nc2c(C(=O)N[C@@H]3CCC[C@@H]3N)sc3nccc1c23 [Example 287, N-((1R,2S)-2-Aminocyclopentyl)-5-(2-methyl-4-((tetrahydro-2H-pyran-4-yl)oxy)phenyl)-4-oxo-4,5-dihydro-3H-1-thia-3,5,8-triazaacenaphthylene-2-carboxamide] | > 1000 nM | – |
| N[C@H]1CCC[C@H]1NC(=O)c1sc2nccc3c2c1NC(=O)N3c1ccc(OC2CCOCC2)cc1 [Example 288, N-((1R,2S)-2-Aminocyclopentyl)-4-oxo-5-(4-((tetrahydro-2H-pyran-4-yl)oxy)phenyl)-4,5-dihydro-3H-1-thia-3,5,8-triazaacenaphthylene-2-carboxamide] | > 1000 nM | – |
| C=CC(=O)N[C@H]1CCCC[C@H]1NC(=O)c1sc2nccc3c2c1NC(=O)N3c1ccc(Oc2ccccc2)cn1 [Example 291, N-((1R,2S)-2-Acrylamidocyclohexyl)-4-oxo-5-(5-phenoxypyridin-2-yl)-4,5-dihydro-3H-1-thia-3,5,8-triazaacenaphthylene-2-carboxamide] | – | 8.60 |
| C=CC(=O)N[C@H]1CCCC[C@H]1NC(=O)c1sc2nccc3c2c1NC(=O)N3c1cnc(Oc2ccccc2)cn1 [Example 295, N-((1R,2S)-2-Acrylamidocyclohexyl)-4-oxo-5-(5-phenoxypyrazin-2-yl)-4,5-dihydro-3H-1-thia-3,5,8-triazaacenaphthylene-2-carboxamide] | – | 8.39 |
| C=CC(=O)N[C@H]1CCC[C@H]1NC(=O)c1sc2nccc3c2c1NC(=O)N3c1ncc(Oc2ccccc2)cn1 [Example 296, N-((1R,2S)-2-acrylamidocyclopentyl)-4-oxo-5-(5-phenoxypyrimidin-2-yl)-4,5-dihydro-3H-1-thia-3,5,8-triazaacenaphthylene-2-carboxamide] | – | 8.39 |
| C=CC(=O)N[C@H]1CCCC[C@H]1NC(=O)c1sc2nccc3c2c1NC(=O)N3c1ncc(Oc2ccccc2)cn1 [Example 297, N-((1R,2S)-2-Acrylamidocyclohexyl)-4-oxo-5-(5-phenoxypyrimidin-2-yl)-4,5-dihydro-3H-1-thia-3,5,8-triazaacenaphthylene-2-carboxamide] | – | 8.53 |
| C=CC(=O)N[C@H]1CCC[C@H]1NC(=O)c1sc2nccc3c2c1NC(=O)N3c1cnc(CC(C)C)cc1C [Example 298, N-((1R,2S)-2-Acrylamidocyclopentyl)-5-(S)-(6-isobutyl-4-methylpyridin-3-yl)-4-oxo-4,5-dihydro-3H-1-thia-3,5,8-triazaacenaphthylene-2-carboxamide] | – | 8.09 |
| C=CC(=O)N[C@H]1CCCC[C@H]1NC(=O)c1sc2nccc3c2c1NC(=O)N3c1cnc(Oc2ccccc2)nc1 [Example 302, N-((1R,2S)-2-Acrylamidocyclohexyl)-4-oxo-5-(2-phenoxypyrimidin-5-yl)-4,5-dihydro-3H-1-thia-3,5,8-triazaacenaphthylene-2-carboxamide] | – | 8.23 |
| C=CC(=O)N[C@H]1CCC[C@H]1NC(=O)c1sc2nccc3c2c1NC(=O)N3c1ccc(Oc2cccnn2)cc1C [Example 305, N-((1R,2S)-2-Acrylamidocyclopentyl)-5-(2-methyl-4-(pyridazin-3-yloxy)phenyl)-4-oxo-4,5-dihydro-3H-1-thia-3,5,8-triazaacenaphthylene-2-carboxamide] | – | 7.84 |
| C=CC(=O)N[C@@H]1CCC[C@H]1NC(=O)c1sc2nccc3c2c1NC(=O)N3c1ncc(Oc2ccccc2)cn1 [Example 307, N-((1R,2R)-2-Acrylamidocyclopentyl)-4-oxo-5-(5-phenoxypyrimidin-2-yl)-4,5-dihydro-3H-1-thia-3,5,8-triazaacenaphthylene-2-carboxamide] | – | 7.58 |
| C=CC(=O)N[C@H]1CCC[C@H]1NC(=O)c1sc2nccc3c2c1NC(=O)N3c1cnc(Oc2ccccc2)nc1 [Example 310, N-((1R,2S)-2-Acrylamidocyclopentyl)-4-oxo-5-(2-phenoxypyrimidin-5-yl)-4,5-dihydro-3H-1-thia-3,5,8-triazaacenaphthylene-2-carboxamide] | – | 8.04 |
| C=CC(=O)N[C@@H]1CCC[C@H]1NC(=O)c1sc2nccc3c2c1NC(=O)N3c1cnc(Oc2ccccc2)cn1 [Example 311, N-((1R,2R)-2-Acrylamidocyclopentyl)-4-oxo-5-(5-phenoxypyrazin-2-yl)-4,5-dihydro-3H-1-thia-3,5,8-triazaacenaphthylene-2-carboxamide] | – | 7.57 |
| C=CC(=O)N[C@@H]1CCC[C@H]1NC(=O)c1sc2nccc3c2c1NC(=O)N3c1cnc(Oc2ccccc2)nc1 [Example 314, N-((1R,2R)-2-Acrylamidocyclopentyl)-4-oxo-5-(2-phenoxypyrimidin-5-yl)-4,5-dihydro-3H-1-thia-3,5,8-triazaacenaphthylene-2-carboxamide] | – | 7.14 |
| C=CC(=O)N[C@H]1CCC[C@H]1NC(=O)c1sc2nccc3c2c1NC(=O)N3c1ccnc(-c2cccnc2)c1 [Example 317, 5-([2,3′-Bipyridin]-4-yl)-N-((1R,2S)-2-acrylamidocyclopentyl)-4-oxo-4,5-dihydro-3H-1-thia-3,5,8-triazaacenaphthylene-2-carboxamide] | – | 7.74 |
| C=CC(=O)N[C@@H]1CC[C@H](NC(=O)c2sc3nccc4c3c2NC(=O)N4c2cnc(Oc3ccccc3)nc2)C1 [Example 319, N-((1S,3R)-3-Acrylamidocyclopentyl)-4-oxo-5-(2-phenoxypyrimidin-5-yl)-4,5-dihydro-3H-1-thia-3,5,8-triazaacenaphthylene-2-carboxamide] | – | 7.21 |
| C=CC(=O)N[C@H]1CCC[C@H]1NC(=O)c1sc2nccc3c2c1NC(=O)N3c1cc(-c2ccccc2)cnn1 [Example 320, N-((1R,2S)-2-Acrylamidocyclopentyl)-4-oxo-5-(5-phenylpyridazin-3-yl)-4,5-dihydro-3H-1-thia-3,5,8-triazaacenaphthylene-2-carboxamide] | – | 7.23 |
| C=CC(=O)N[C@@H]1CCC[C@H]1NC(=O)c1sc2nccc3c2c1NC(=O)N3c1cccc(-c2cccnc2)c1 [Example 324, N-((1R,2R)-2-Acrylamidocyclopentyl)-4-oxo-5-(3-(pyridin-3-yl)phenyl)-4,5-dihydro-3H-1-thia-3,5,8-triazaacenaphthylene-2-carboxamide] | – | 6.90 |
| C=CC(=O)N[C@H]1CCC[C@H]1NC(=O)c1sc2nccc3c2c1NC(=O)N3c1ccnc(-c2ccccn2)c1 [Example 325, 5-([2,2′-Bipyridin]-4-yl)-N-((1R,2S)-2-acrylamidocyclopentyl)-4-oxo-4,5-dihydro-3H-1-thia-3,5,8-triazaacenaphthylene-2-carboxamide] | – | 7.07 |
| C=CC(=O)N[C@@H]1CCC[C@H]1NC(=O)c1sc2nccc3c2c1NC(=O)N3c1ccnc(-c2cccnc2)c1 [Example 326, 5-([2,3′-Bipyridin]-4-yl)-N-((1R,2R)-2-acrylamidocyclopentyl)-4-oxo-4,5-dihydro-3H-1-thia-3,5,8-triazaacenaphthylene-2-carboxamide] | – | 6.72 |
| C=CC(=O)N[C@@H]1CCC[C@H]1NC(=O)c1sc2nccc3c2c1NC(=O)N3c1cccc(-c2ccccn2)c1 [Example 327, N-((1R,2R)-2-Acrylamidocyclopentyl)-4-oxo-5-(3-(pyridin-2-yl)phenyl)-4,5-dihydro-3H-1-thia-3,5,8-triazaacenaphthylene-2-carboxamide] | – | 6.98 |
| C=CC(=O)N[C@H]1CCC[C@H]1NC(=O)c1sc2nccc3c2c1NC(=O)N3c1cnc(NC(C)C)cc1C [Example 330, N-((1R,2S)-2-Acrylamidocyclopentyl)-5-(6-(isopropylamino)-4-methylpyridin-3-yl)-4-oxo-4,5-dihydro-3H-1-thia-3,5,8-triazaacenaphthylene-2-carboxamide] | – | 6.69 |
| CC(C)c1cc(N2C(=O)Nc3c(C(=O)N[C@@H]4CCC[C@H]4N)sc4nccc2c34)ccn1 [Example 336, N-((1R,2R)-2-Aminocyclopentyl)-5-(2-isopropylpyridin-4-yl)-4-oxo-4,5-dihydro-3H-1-thia-3,5,8-triazaacenaphthylene-2-carboxamide] | – | 6.01 |
| C=CC(=O)N[C@@H]1CCC[C@H]1NC(=O)c1sc2nccc3c2c1NC(=O)N3c1ccnc(C(C)C)c1 [Example 337, N-((1R,2R)-2-Acrylamidocyclopentyl)-5-(2-isopropylpyridin-4-yl)-4-oxo-4,5-dihydro-3H-1-thia-3,5,8-triazaacenaphthylene-2-carboxamide] | – | 6.42 |
| C=CC(=O)N[C@@H]1CCCC[C@H]1NC(=O)c1sc2nccc3c2c1NC(=O)N3c1cnc(Oc2ccccc2)nc1 [Example 338, N-((1R,2R)-2-Acrylamidocyclohexyl)-4-oxo-5-(2-phenoxypyrimidin-5-yl)-4,5-dihydro-3H-1-thia-3,5,8-triazaacenaphthylene-2-carboxamide] | – | 6.39 |
| C=CC(=O)N[C@@H]1CCC[C@H]1NC(=O)c1sc2nccc3c2c1NC(=O)N3c1ccnc(-c2ccccn2)c1 [Example 342, 5-([2,2′-Bipyridin]-4-yl)-N-((1R,2R)-2-acrylamidocyclopentyl)-4-oxo-4,5-dihydro-3H-1-thia-3,5,8-triazaacenaphthylene-2-carboxamide] | – | 6.12 |
